These results are taken from ChEMBL document CHEMBL1146094, “Screening for cardiovascular safety: a structure-activity approach for guiding lead selection of melanin concentrating hormone receptor 1 antagonists” (J Med Chem, 2006).

Data set [1] deals with Rattus norvegicus. Nature of the data set: End-of-study drug concentration in inactin-anesthetized Sprague-Dawley rat brain. It counts as functional.
Data set [2] relates to IMR-32. The data set is described as follows: Inhibition of MCH-mediated calcium release in whole IMR32 cells by FLIPR assay. It counts as functional, cell-based. As to conditions: Homo sapiens.
Data set [3] deals with Rattus norvegicus. Nature of the data set: End-of-study drug concentration in inactin-anesthetized Sprague-Dawley rat plasma. It counts as functional.
The target of data set [4] is Melanin-concentrating hormone receptor 1 (Homo sapiens, UniProt Q99705). Nature of the data set: Displacement of [125I]MCH from MCHr1 expressed in IMR32 (I3.4.2) cells. It counts as cell-based. On the technique in general: Loss of bound radioactivity is the signal in a displacement assay; it reports binding, not function.
The test system of data set [5] is IMR-32. The data set is described as follows: Inhibition of MCH-mediated calcium release in whole IMR32 cells at 10 uM by FLIPR assay. It counts as functional. Conditions: Homo sapiens.
A short description of data set [6]: AUC in DIO mice plasma at 10 mg/kg, po. It counts as ADME, organism-based. Set-up: dose 10 mg/kg, route oral. Conditions: mouse.
The subject of the next data set is Mus musculus. The data set is described as follows: AUC in DIO mice brain at 10 mg/kg, po. Type of data set: ADME, organism-based. Further details: dose 10 mg/kg, route oral. As to conditions: in vivo.

Melanin-concentrating hormone receptor 1, sequence (Q99705 whole entry): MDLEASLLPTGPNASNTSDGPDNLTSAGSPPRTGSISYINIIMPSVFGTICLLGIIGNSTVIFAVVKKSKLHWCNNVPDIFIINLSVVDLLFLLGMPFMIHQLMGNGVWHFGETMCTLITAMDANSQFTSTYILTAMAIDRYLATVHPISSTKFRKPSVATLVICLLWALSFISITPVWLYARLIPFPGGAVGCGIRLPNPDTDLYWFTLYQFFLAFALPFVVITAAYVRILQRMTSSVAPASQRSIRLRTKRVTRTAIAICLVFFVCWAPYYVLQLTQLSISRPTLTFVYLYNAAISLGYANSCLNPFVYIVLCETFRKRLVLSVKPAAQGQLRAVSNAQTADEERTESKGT

What is called IC50 is the concentration that inhibits the measured activity by half. `O=C(Cc1ccc(OCc2ccccc2)cc1)Nc1ccc2cnn(CCN3CCCC3)c2c1`: the Activity amounted to 10 µg/g in the data set with Rattus norvegicus [1] and 23 µM in the data set on Rattus norvegicus [3]. In addition, the half-inhibitory concentration (IC50) in the data set on IMR-32 [2] came to 11 nM.

As to `O=C(NC1CCN(Cc2ccc3c(c2)OCO3)CC1)c1cc(Cl)ccc1NCc1nccs1`, in the data set with IMR-32 [2], the IC50 was determined as 53 nM. This compound came in with an Activity in the data set on Rattus norvegicus [3] of 91 µM.

For `O=C(Nc1ccc(Oc2ccccc2)cc1)Nc1ccc2c(cnn2CCN2CCCC2)c1`, the Activity was found to be 10 µg/g with Rattus norvegicus [1] and 88 µM with Rattus norvegicus [3].

`O=C(NC1CCN(Cc2ccc3c(c2)OCO3)CC1)c1cc(=O)c2cc(Cl)c(Cl)cc2o1`: the Activity with Rattus norvegicus [1] is 63 µg/g; in the data set with Rattus norvegicus [3], 42 µM. The IC50 came to 3 nM in data set [4] and 83 nM in the data set with IMR-32 [2].

Consider `O=C(Nc1ccc(Oc2ccccc2)cc1)Nc1ccc2nn(CCN3CCCC3)cc2c1`, for which the Activity was found to be 6 µg/g with Rattus norvegicus [1] and 558 µM in the data set on Rattus norvegicus [3]. Also, the IC50 was determined as 46 nM in data set [4] and 314 nM in the data set on IMR-32 [2].

For `COc1ccc2oc(O)c/c(=N\C3CCN(Cc4ccc5c(c4)OCO5)CC3)c2c1`, the figures for the Activity with Rattus norvegicus [1] and with Rattus norvegicus [3] were 71 µg/g and 272 µM, respectively. In addition, the figures for the IC50 (in data set [4]; in the data set with IMR-32 [2]) were 2 nM and 11 nM, respectively.

Take `CC(C)OCCNc1ncc(Cl)cc1C(=O)NC1CCN(Cc2ccc3c(c2)OCO3)CC1`: the Activity in the data set with Rattus norvegicus [1] worked out at 88 µg/g; with Rattus norvegicus [3] it was 44 µM. The concentration for half-maximal inhibition (IC50) with IMR-32 [2] was found to be 25 nM.

As usually defined, the inhibition is the share of the control response that was lost under treatment. As to `COc1ccc(CC(=O)Nc2ccc3cnn(CCN4CCCC4)c3c2)cc1`, the Activity worked out at 6 µg/g in the data set on Rattus norvegicus [1] and 39 µM in the data set with Rattus norvegicus [3]. In addition, the half-inhibitory concentration (IC50) in data set [4] is 3630 nM; in the data set on IMR-32 [2] it was greater than 10000 nM. The inhibition at 10 µM in the data set on IMR-32 [5] was 14%.

`CC(C)OCCNc1ncc(Cl)cc1C(=O)NC1CCCN(Cc2ccc3c(c2)OCO3)C1` (configuration not stated): the Activity with Rattus norvegicus [1] worked out at 138 µg/g; with Rattus norvegicus [3] it was 61 µM. The inhibition at 10 µM in the data set on IMR-32 [5] came to 30%.

`COc1ccc2c(=O)cc(C(=O)NC3CCN(Cc4ccc5c(c4)OCO5)CC3)oc2c1`: the Activity is 158 µg/g in the data set with Rattus norvegicus [1] and 66 µM in the data set on Rattus norvegicus [3]. In addition, the concentration for half-maximal inhibition (IC50) is 6 nM in data set [4] and 73 nM in the data set with IMR-32 [2]. The AUC was determined as 18700 ng·h/mL in data set [6] and 4.4 µg·h/g in the data set on Mus musculus.

On to `O=C(Nc1ccc(Oc2ccccc2)cc1)Nc1ccc2c(cnn2CCN2CCCCC2)c1`, for which the results for the Activity in the data set on Rattus norvegicus [1] and in the data set on Rattus norvegicus [3] were 13 µg/g and 77 µM, respectively. In addition, the half-inhibitory concentration (IC50) in data set [4] stood at 5 nM; in the data set with IMR-32 [2] it was 136 nM.

Regarding `Clc1ccc2[nH]nc(NC3CCN(Cc4ccc5c(c4)OCO5)CC3)c2c1`, the Activity was found to be 30 µg/g in the data set on Rattus norvegicus [1] and 22 µM in the data set on Rattus norvegicus [3]. In addition, the IC50 was 16 nM in data set [4] and 376 nM with IMR-32 [2].

For `O=C(Nc1ccc(Oc2ccccc2)cc1)Nc1ccc2c(cnn2CCN2CCCCCC2)c1`, the figures for the IC50 (in data set [4]; in the data set on IMR-32 [2]) were 4 nM and 103 nM, respectively.

Consider `O=C(Cc1ccc(OCc2ccccc2)cc1)Nc1cccc2c1cnn2CCN1CCCC1`, for which, in the data set on IMR-32 [2], the half-inhibitory concentration (IC50) worked out at 71 nM. The compound further had an Activity in the data set on Rattus norvegicus [3] of 4 µM.

With `O=C(Nc1ccc(Oc2ccccc2)cc1)Nc1ccc2nn(CCN3CC[C@H](O)C3)cc2c1`, the Activity with Rattus norvegicus [1] turned out to be 3 µg/g; in the data set on Rattus norvegicus [3], 201 µM. The figures for the concentration for half-maximal inhibition (IC50) (in data set [4]; in the data set with IMR-32 [2]) were 57 nM and 214 nM, respectively. Further, the AUC in data set [6] came out at 1020 ng·h/mL; with Mus musculus, 0 µg·h/g.

With `O=C(Cc1ccc(OCc2ccccc2)cc1)Nc1ccc2c(cnn2CCN2CCCC2)c1`, the results for the Activity in the data set on Rattus norvegicus [1] and in the data set on Rattus norvegicus [3] were 46 µg/g and 53 µM, respectively. Also, in the data set with IMR-32 [5], the inhibition at 10 µM came out at 14%.

For `COc1ccc2nccc(NC3CCN(Cc4ccc5c(c4)OCO5)CC3)c2c1`, the results for the IC50 (in data set [4]; in the data set on IMR-32 [2]) were 10 nM and 74 nM, respectively.

Turning to `O=C(Cc1ccc(Oc2ccccc2)cc1)Nc1ccc2c(cnn2CCN2CCCC2)c1`, the IC50 in data set [4] turned out to be 78 nM; in the data set on IMR-32 [2], 309 nM. In the data set on Rattus norvegicus [3], this compound yielded an Activity of 2 µM.
